Measurements published in PMC6576746, “Rational discovery of dual-indication multi-target PDE/Kinase inhibitor for precision anti-cancer therapy using structural systems pharmacology” (PLoS Computational Biology, 2019).

Assays:
Assay in all cases: biochemical
Set-up in all cases: DiscoverX KinomeScan competition binding assay across human kinases; per cent of control at 10 and 100 uM
[1] = biological target: SRC (Homo sapiens, UniProt P12931); details: competition binding, % of control
Protocol: (§1) To validate our computational predictions, we employed a competition binding assay to detect the binding of levosimendan to 425 human kinases as well as its dose-response curve to RIOK1. The proprietary KinomeScan assay was performed by DiscoverX (Fremont, California, USA). The tests were performed at 10 μM and 100 μM concentrations of levosimendan, respectively. Assay results were reported as %control, calculated as follows: %control=(TestCompoundSignal−PositiveControlSignal)/(NegativeControlSignal−PositiveControlSignal)×100 KinomeScan assay across 452 human kinases verified our computational prediction (S1 Table). RIOK1 is one of the strongest inhibited kinases by levosimendan. The percentage control of RIOK1 is 15.0 and 0.0 under the treatment of 10 μM and 100 μM of levosimendan, respectively. […] The percentage controls of five kinases: FLT3, MAP2K5, PIP5K1A, GAK, and KIT are less than 30.0 under the treatment of both 10 μM and 100 μM of levosimendan. Both FLT3 and KIT are tyrosine protein kinases. Their inhibitors have recently been approved for the treatment of Acute Myeloid Leukemia and other types of cancers, but a combination therapy is needed to overcome rapidly emerged drug resistance, thus improve patients’ drug responses. Other kinases inhibited by levosimendan belong to serine/threonine protein kinase family (RIOK1, RIOK3, GAK, and MAP2K5) and lipid kinase family (PIP5K1A). […] As a result, levosimendan may modulate different cancer pathways from those by the tyrosine protein kinase inhibitors, and it could be a novel lead compound for a new anti-cancer therapy to overcome drug resistance of existing drugs or to target different types of cancers through polypharmacology or drug combination.

[2] = biological target: BRAF(V600E) (Homo sapiens, UniProt P15056, V600E); details: competition binding, % of control; read-out: Percent Control (100 uM Levosimendan)
Protocol: as §1

[3] = biological target: T1, MEK5 (Homo sapiens, UniProt Q13163); details: competition binding, % of control
T1 construct: gene MAP2K5
T1 sequence (Q13163 whole entry): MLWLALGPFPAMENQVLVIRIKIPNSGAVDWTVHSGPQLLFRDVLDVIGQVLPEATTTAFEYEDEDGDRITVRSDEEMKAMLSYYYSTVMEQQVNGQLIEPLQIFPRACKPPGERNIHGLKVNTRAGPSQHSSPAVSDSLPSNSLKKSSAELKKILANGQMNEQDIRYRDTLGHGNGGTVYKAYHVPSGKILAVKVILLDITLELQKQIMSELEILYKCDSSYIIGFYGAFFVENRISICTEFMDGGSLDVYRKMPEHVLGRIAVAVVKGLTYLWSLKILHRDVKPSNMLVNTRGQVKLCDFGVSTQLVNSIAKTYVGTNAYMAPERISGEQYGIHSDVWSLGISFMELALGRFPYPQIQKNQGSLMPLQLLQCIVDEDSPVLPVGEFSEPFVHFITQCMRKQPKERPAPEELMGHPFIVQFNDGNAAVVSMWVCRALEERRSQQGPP
Protocol: as §1

[4] = biological target: RET(M918T) (Homo sapiens, UniProt P07949, M918T); details: competition binding, % of control; read-out: Percent Control (100 uM Levosimendan)
RET(M918T), sequence (P07949 whole entry M918T): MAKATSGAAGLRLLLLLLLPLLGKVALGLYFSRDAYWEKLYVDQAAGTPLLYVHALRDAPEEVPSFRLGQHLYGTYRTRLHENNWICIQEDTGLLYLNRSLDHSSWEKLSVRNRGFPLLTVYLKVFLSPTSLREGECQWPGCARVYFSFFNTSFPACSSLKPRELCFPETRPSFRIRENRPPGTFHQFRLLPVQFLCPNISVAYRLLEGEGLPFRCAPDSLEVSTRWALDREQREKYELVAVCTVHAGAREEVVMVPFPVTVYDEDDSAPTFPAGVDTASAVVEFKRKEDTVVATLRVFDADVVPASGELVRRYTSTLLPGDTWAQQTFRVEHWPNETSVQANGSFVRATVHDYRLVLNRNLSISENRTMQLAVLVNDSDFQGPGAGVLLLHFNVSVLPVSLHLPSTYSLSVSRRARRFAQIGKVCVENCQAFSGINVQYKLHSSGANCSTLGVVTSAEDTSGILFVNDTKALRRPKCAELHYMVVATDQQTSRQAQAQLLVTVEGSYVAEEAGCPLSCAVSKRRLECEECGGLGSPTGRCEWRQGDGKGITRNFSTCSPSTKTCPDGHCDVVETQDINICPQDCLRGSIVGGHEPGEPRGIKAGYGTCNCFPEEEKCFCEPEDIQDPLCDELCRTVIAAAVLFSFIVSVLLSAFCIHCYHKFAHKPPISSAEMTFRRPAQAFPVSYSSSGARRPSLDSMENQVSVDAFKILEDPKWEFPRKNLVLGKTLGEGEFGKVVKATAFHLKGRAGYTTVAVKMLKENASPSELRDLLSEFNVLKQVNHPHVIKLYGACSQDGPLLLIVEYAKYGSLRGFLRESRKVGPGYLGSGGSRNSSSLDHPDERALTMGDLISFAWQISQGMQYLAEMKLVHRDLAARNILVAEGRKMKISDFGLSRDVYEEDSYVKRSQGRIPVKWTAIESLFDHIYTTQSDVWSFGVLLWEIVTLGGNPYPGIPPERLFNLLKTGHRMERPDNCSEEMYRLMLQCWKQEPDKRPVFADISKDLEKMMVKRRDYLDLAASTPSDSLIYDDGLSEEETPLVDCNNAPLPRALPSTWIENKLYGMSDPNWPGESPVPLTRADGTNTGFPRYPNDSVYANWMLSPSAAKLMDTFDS
Protocol: as §1

[5] = biological target: CDK3 (Homo sapiens, UniProt Q00526); details: competition binding, % of control; read-out: Percent Control (100 uM Levosimendan)
CDK3, sequence (Q00526 whole entry): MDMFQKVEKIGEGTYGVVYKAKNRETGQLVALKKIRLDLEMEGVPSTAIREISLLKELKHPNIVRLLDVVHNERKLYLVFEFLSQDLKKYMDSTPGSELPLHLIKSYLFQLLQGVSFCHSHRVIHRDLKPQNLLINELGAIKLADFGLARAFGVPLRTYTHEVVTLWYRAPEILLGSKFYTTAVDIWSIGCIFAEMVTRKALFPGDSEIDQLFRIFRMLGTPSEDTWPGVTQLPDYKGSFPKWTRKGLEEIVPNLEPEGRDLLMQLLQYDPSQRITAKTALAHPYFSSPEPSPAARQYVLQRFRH
Protocol: as §1

[6] = biological target: T2, DCAMKL3 (Homo sapiens, UniProt Q9C098); details: competition binding, % of control; read-out: Percent Control (100 uM Levosimendan)
T2 construct: gene DCLK3
Protocol: as §1

[7] = biological target: T3, ASK2 (Homo sapiens, UniProt O95382); details: competition binding, % of control; read-out: Percent Control (100 uM Levosimendan)
T3 construct: gene MAP3K6
Protocol: as §1

[8] = biological target: T4, p38-beta (Homo sapiens, UniProt Q15759); details: competition binding, % of control; read-out: Percent Control (100 uM Levosimendan)
T4 construct: gene MAPK11
T4 sequence (Q15759 whole entry): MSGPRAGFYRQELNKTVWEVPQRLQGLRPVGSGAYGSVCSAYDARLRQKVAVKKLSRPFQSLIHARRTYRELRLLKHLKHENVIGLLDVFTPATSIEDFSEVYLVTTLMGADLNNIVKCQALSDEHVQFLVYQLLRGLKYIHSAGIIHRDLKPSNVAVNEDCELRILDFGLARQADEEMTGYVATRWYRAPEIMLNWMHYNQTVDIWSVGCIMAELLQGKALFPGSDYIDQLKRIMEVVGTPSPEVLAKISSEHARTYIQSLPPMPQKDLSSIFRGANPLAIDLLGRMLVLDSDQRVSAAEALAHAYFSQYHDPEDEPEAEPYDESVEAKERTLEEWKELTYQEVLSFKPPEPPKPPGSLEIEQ
Protocol: as §1

[9] = biological target: PIK3CA(H1047Y) (Homo sapiens, UniProt P42336, H1047Y); details: competition binding, % of control; read-out: Percent Control (100 uM Levosimendan)
PIK3CA(H1047Y), sequence (P42336 whole entry H1047Y): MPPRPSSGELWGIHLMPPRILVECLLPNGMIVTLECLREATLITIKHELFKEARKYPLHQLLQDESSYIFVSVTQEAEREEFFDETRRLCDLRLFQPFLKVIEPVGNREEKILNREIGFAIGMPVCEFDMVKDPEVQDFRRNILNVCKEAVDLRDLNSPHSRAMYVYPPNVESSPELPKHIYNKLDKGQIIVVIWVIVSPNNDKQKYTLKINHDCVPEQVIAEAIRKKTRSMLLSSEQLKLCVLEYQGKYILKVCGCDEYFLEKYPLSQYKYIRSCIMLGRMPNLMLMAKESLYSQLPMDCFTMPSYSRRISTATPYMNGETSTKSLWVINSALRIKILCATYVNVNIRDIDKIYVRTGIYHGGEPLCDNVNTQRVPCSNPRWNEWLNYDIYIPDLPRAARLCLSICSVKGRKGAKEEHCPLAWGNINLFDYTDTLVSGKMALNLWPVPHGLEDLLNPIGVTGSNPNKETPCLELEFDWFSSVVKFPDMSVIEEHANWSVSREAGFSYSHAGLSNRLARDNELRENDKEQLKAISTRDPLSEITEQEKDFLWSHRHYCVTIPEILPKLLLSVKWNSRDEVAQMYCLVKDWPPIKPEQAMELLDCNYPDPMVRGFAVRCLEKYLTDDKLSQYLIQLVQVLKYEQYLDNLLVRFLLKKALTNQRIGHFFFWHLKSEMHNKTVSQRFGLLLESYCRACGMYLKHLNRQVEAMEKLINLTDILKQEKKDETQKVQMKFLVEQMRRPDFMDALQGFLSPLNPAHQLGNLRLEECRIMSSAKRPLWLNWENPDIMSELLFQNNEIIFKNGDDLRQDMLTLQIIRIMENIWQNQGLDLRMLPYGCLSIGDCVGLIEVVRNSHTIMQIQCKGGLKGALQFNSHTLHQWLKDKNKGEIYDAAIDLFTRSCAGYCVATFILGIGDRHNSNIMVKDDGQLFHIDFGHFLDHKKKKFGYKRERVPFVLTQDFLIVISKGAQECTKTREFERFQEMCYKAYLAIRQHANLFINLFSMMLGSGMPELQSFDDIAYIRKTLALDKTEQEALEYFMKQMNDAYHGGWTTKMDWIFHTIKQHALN
Protocol: as §1

[10] = biological target: ZAP70 (Homo sapiens, UniProt P43403); details: competition binding, % of control; read-out: Percent Control (100 uM Levosimendan)
Protocol: as §1

[11] = biological target: MERTK (Homo sapiens, UniProt Q12866); details: competition binding, % of control; read-out: Percent Control (100 uM Levosimendan)
Protocol: as §1

[12] = biological target: TLK1 (Homo sapiens, UniProt Q9UKI8); details: competition binding, % of control; read-out: Percent Control (100 uM Levosimendan)
TLK1, sequence (Q9UKI8 whole entry): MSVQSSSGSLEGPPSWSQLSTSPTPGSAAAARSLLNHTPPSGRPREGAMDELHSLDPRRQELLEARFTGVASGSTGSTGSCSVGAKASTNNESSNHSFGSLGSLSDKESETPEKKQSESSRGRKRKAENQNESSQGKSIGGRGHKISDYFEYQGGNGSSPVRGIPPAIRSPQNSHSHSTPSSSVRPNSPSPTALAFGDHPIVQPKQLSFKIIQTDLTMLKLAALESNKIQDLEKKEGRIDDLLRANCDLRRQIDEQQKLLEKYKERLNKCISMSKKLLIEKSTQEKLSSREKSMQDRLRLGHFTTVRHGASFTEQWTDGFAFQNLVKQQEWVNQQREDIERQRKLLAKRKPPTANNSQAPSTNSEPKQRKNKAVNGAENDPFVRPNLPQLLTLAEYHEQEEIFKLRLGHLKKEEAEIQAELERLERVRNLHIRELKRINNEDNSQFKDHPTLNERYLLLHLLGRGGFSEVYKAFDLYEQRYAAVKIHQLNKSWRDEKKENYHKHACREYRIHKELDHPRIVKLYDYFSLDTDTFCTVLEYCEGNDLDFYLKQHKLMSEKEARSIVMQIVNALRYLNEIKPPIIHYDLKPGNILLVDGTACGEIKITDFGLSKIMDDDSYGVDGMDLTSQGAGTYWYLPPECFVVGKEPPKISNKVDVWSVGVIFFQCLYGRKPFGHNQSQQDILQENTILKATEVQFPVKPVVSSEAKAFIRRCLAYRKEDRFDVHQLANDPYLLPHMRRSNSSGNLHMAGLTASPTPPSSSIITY
Protocol: as §1

[13] = biological target: T5, MEK2 (Homo sapiens, UniProt P36507); details: competition binding, % of control; read-out: Percent Control (100 uM Levosimendan)
T5 construct: gene MAP2K2
T5 sequence (P36507 whole entry): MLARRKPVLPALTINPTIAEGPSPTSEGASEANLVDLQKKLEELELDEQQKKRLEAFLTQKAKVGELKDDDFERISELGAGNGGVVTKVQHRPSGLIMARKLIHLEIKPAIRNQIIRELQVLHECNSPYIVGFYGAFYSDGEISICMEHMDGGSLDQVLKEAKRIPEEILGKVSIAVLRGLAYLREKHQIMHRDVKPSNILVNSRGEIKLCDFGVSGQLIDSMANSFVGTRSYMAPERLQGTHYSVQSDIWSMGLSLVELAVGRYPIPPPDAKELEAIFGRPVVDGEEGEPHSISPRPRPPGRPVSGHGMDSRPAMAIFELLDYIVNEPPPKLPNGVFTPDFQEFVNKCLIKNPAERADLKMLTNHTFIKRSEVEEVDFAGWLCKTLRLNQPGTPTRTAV
Protocol: as §1

[14] = biological target: AXL (Homo sapiens, UniProt P30530); details: competition binding, % of control; read-out: Percent Control (100 uM Levosimendan)
Protocol: as §1

[15] = biological target: EGFR(L747-E749del, A750P) (Homo sapiens, UniProt P00533, A750P/DEL747-749); details: competition binding, % of control; read-out: Percent Control (100 uM Levosimendan)
Protocol: as §1

[16] = biological target: ACVR2B (Homo sapiens, UniProt Q13705); details: competition binding, % of control; read-out: Percent Control (100 uM Levosimendan)
Protocol: as §1

[17] = biological target: WEE1 (Homo sapiens, UniProt P30291); details: competition binding, % of control; read-out: Percent Control (100 uM Levosimendan)
Protocol: as §1

[18] = biological target: PRKG2 (Homo sapiens, UniProt Q13237); details: competition binding, % of control; read-out: Percent Control (100 uM Levosimendan)
Protocol: as §1

[19] = biological target: T6, MRCKA (Homo sapiens, UniProt Q5VT25); details: competition binding, % of control; read-out: Percent Control (100 uM Levosimendan)
T6 construct: gene CDC42BPA
Protocol: as §1

[20] = read-out: Percent Control (10 uM Levosimendan)
[21] = read-out: Percent Control (100 uM Levosimendan)

SRC, sequence (P12931 whole entry): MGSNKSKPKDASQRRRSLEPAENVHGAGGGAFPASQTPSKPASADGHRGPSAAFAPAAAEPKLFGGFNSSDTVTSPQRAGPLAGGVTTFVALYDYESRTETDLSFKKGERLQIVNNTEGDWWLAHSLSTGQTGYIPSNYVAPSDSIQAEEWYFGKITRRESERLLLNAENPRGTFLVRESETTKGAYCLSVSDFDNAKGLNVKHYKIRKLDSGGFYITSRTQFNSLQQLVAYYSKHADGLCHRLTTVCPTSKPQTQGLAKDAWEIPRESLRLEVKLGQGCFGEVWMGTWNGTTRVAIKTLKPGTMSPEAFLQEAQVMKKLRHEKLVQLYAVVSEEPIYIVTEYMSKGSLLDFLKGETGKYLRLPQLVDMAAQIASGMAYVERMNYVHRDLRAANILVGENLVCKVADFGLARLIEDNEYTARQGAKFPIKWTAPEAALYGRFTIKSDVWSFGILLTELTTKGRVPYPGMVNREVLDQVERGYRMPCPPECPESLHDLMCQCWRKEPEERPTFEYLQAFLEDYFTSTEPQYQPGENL

remaining binding at 10 µM [1, 20]: 100%
remaining binding at 100 µM [1, 21]: 42%
remaining binding at 100 µM [2]: 78%
remaining binding at 10 µM [3, 20]: 17%
remaining binding at 100 µM [3, 21]: 2.6%
remaining binding at 100 µM [4]: 90%
remaining binding at 100 µM [5]: 100%
remaining binding at 100 µM [6]: 100%
remaining binding at 100 µM [7]: 80%
remaining binding at 100 µM [8]: 94%
remaining binding at 100 µM [9]: 100%
remaining binding at 100 µM [10]: 74%
remaining binding at 100 µM [11]: 70%
remaining binding at 100 µM [12]: 100%
remaining binding at 100 µM [13]: 70%
remaining binding at 100 µM [14]: 83%
remaining binding at 100 µM [15]: 64%
remaining binding at 100 µM [16]: 100%
remaining binding at 100 µM [17]: 100%
remaining binding at 100 µM [18]: 98%
remaining binding at 100 µM [19]: 90%
Structure (SMILES): C[C@@H]1CC(=O)NN=C1c1ccc(NN=C(C#N)C#N)cc1 [levosimendan]
